Source: patent US6150359A, “Naphthyridinones for inhibiting protein tyrosine kinase and cell cycle kinase mediated cellular proliferation” (Warner-Lambert Company, priority 2000, dated 2000)

Experiments:
c-Src = molecular target: T1, c-Src (Homo sapiens, UniProt P12931); assay: c-Src kinase assay, 32P incorporation into polyglutamate-tyrosine; format: biochemical; details: 5 μM ATP
T1 construct: made in house; host or cells: baculovirus infected insect cells
Protocol: (§1) Other Kinases. c-Src kinase is purified from baculovirus infected insect cell lysates using an antipeptide monoclonal antibody directed against the N-terminal 2-17 amino acids as described previously by Fry, et al., Anticancer Drug Design, 1994;9:331-351. Protein kinase C (PKC.) is obtained as a rat brain preparation from Promega.
c-Src. The antibody, covalently linked to 0.65-μm latex beads, is added to a suspension of insect cell lysis buffer comprised of 150 mM NaCl, 50 mM Tris pH 7.5, 1 mM DTT, 1% NP-40, 2 mM EGTA, 1 mM sodium vanadate, 1 mM PMSF, 1 μg/mL each of leupeptin, pepstatin, and aprotinin. Insect cell lysate containing the c-Src protein is incubated with these beads for 3 to 4 hours at 4° C. with rotation. At the end of the lysate incubation, the beads are rinsed three times in lysis buffer, resuspended in lysis buffer containing 10% glycerol, and frozen. These latex beads are thawed, rinsed three times in assay buffer which is comprised of 40 mM tris pH 7.5, 5 mM magnesium chloride, and suspended in the same buffer. In a Millipore 96-well plate with a 0.65 μm polyvinylidine membrane bottom are added the reaction components: 10-μL c-Src beads, 10 μL of 2.5 mg/mL polyglutamate-tyrosine substrate, 5 μM ATP containing 0.2 μCi labeled ^32 P-ATP, 5 μL DMSO containing inhibitors or as a solvent control, and buffer to make the final volume 125 μL. The reaction is started at room temperature by addition of the ATP and quenched 10 minutes later by the addition of 125 μL of 30% TCA, 0.1 M sodium pyrophosphate for 15 minutes on ice. The plate is then filtered and the wells washed with two 250-μL aliquots of 15% TCA, 0.1 M pyrophosphate. The filters are punched, counted in a liquid scintillation counter, and the data examined for inhibitory activity in comparison to a known inhibitor such as erbstatin. The method is described more fully in J. Med. Chem., 1994;37:598-609.

[1] = molecular target: T2, EGFr (Human EGF receptor tyrosine kinase) (Homo sapiens, UniProt P00533); assay: EGFr tyrosine kinase assay; format: biochemical; details: 10 μM ATP
T2 construct: Human EGF receptor tyrosine kinase is isolated from A431 human epidermoid carcinoma cells; endogenous in cells; host or cells: A431 human epidermoid carcinoma cells (detergent lysate, Q Sepharose fractions)
Protocol: Epidermal Growth Factor Receptor (EGFr). Human EGF receptor tyrosine kinase is isolated from A431 human epidermoid carcinoma cells by the following method. Cells were grown in roller bottles in 50% Dulbecco's Modified Eagle medium and 50% HAM F-12 nutrient media (Gibco) containing 10% fetal calf serum. Approximately 10^9 cells are lysed in two volumes of buffer containing 20 mM 2-(4N-[2-[…]]piperazin-1-yl)ethanesulfonic acid (Hepes), pH 7.4, 5 mM ethylene glycol bis(2-aminoethyl ether) N,N,N',N'-tetraacetic acid (EGTA), 1% Triton X-100, 10% glycerol, 0.1 mM sodium orthovanadate, 5 mM sodium fluoride, 4 mM pyrophosphate, 4 mM benzamide, 1 mM dithiothreitol (DTT), 80 μg/mL aprotinin, 40 μg/mL leupeptin, and 1 mM phenylmethylsulfonyl fluoride (PMSF). After centrifugation at 25,000×g for 10 minutes, the supernatant is applied to a fast Q sepharose column (Pharmacia) and eluted with a linear gradient from 0.1 M NaCl to 0.4 M NaCl in 50 mM Hepes, 10% glycerol, pH 7.4. Enzyme active fractions are pooled, divided into aliquots, and stored at -100° C.
EGFr. Enzyme assays for IC50 determinations are performed in 96-well filter plates (Millipore MADVN6550). The total volume is 0.1 mL containing 20 mM Hepes, pH 7.4, 50 μM sodium vanadate, 40 mM magnesium chloride, 10 μM ATP containing 0.5 μCi of [^32 P]ATP, 20 μg of polyglutamic acid/tyrosine (Sigma Chemical Co., St. Louis, Mo.), 10 ng of EGF receptor tyrosine kinase and appropriate dilutions of inhibitor. All components except the ATP are added to the well, and the plate is incubated with shaking for 10 minutes at 25° C. The reaction is started by adding [^32 P]ATP, and the plate is incubated at 25° C. for 10 minutes. The reaction is terminated by addition of 0.1 mL of 20% trichloroacetic acid (TCA). The plate is kept at 4° C. for at least 15 minutes to allow the substrate to precipitate. The wells are then washed five times with 0.2 mL of 10% TCA, and ^32 P incorporation is determined with a Wallac beta plate counter.

Protein kinase C (PKC) = Protein kinase C (PKC) assay; format: biochemical; details: rat brain preparation
Protocol: as §1
Other Kinases. An assay using the intracellular kinase domains of insulin receptor (INSr) is performed as described for the EGF receptor except that 10 mM manganese chloride is included in the reaction. The PKC assay is performed as previously described by Martiny-Baron, et al., J. Biol. Chem., 1993;268:9194-9197.

HCT-8 cells = assay: Human Colon Carcinoma Clonogenic Assay, HCT-8; format: cell-based; details: HCT-8, 2 days with drug, colonies after approximately 2 weeks
Protocol: (§2) Human Colon Carcinoma Clonozenic Assay. Human colon carcinoma cells are seeded into 6 well plates in volumes of 3 mL and allowed to incubate overnight (37° C., 5% CO2, 95% air). SW-620 cells are seeded at 7×10^5 per well; HCT-8 cells are seeded at 5×10^5 per well; HT-29 cells are seeded at 4×10^5 cells per well. Serially diluted drugs are prepared at 200 times the final concentration, and 15 μL are added to each of duplicate wells. Cells are incubated with drug for 2 days, rinsed once with 1 mL of trypsin+EDTA, and then trypsinized with the same trypsin solution. After trituration and centrifugation at 750×g for 3 minutes, the cells are suspended in serum-free growth medium and counted using an electronic particle counter. An agarose mixture appropriate for the cloning of each cell line is made using 10% fetal bovine serum in growth medium (SW-620-0.35% agarose, HCT-8 and HT-29-0.4% agarose). […] One; milliliter of each of these cell suspensions is added to duplicate wells of 6 well plates previously prepared with 10% serum/growth medium/1% agarose plugs. The cells in these plates are incubated for approximately 2 weeks in the incubator and stained with 1 mL per well of 1 mg/mL iodonitrotetrazolium violet stain. The visible colonies are counted with an electronic optical colony counter and the clonogenicity of treated cells calculated in comparison to untreated control cells.

HT-29 cells = assay: Human Colon Carcinoma Clonogenic Assay, HT-29; format: cell-based; details: HT-29, 2 days with drug, colonies after approximately 2 weeks
Protocol: as §2

T1 sequence (P12931 whole entry, species assumed): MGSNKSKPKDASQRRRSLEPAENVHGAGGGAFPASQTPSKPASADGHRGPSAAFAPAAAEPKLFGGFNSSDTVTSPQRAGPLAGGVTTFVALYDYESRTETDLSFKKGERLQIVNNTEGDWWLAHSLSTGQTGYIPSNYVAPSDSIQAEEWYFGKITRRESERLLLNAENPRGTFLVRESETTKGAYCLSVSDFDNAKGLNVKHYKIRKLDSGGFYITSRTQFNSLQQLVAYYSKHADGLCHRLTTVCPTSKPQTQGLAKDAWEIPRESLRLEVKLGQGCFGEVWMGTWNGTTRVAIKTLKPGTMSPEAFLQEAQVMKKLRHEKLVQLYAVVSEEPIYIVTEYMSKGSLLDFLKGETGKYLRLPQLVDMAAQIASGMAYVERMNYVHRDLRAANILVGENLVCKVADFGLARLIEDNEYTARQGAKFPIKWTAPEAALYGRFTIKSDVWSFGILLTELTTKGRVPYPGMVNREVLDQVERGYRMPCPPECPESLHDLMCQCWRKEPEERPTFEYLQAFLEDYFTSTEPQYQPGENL
T2 sequence (P00533 25-1210): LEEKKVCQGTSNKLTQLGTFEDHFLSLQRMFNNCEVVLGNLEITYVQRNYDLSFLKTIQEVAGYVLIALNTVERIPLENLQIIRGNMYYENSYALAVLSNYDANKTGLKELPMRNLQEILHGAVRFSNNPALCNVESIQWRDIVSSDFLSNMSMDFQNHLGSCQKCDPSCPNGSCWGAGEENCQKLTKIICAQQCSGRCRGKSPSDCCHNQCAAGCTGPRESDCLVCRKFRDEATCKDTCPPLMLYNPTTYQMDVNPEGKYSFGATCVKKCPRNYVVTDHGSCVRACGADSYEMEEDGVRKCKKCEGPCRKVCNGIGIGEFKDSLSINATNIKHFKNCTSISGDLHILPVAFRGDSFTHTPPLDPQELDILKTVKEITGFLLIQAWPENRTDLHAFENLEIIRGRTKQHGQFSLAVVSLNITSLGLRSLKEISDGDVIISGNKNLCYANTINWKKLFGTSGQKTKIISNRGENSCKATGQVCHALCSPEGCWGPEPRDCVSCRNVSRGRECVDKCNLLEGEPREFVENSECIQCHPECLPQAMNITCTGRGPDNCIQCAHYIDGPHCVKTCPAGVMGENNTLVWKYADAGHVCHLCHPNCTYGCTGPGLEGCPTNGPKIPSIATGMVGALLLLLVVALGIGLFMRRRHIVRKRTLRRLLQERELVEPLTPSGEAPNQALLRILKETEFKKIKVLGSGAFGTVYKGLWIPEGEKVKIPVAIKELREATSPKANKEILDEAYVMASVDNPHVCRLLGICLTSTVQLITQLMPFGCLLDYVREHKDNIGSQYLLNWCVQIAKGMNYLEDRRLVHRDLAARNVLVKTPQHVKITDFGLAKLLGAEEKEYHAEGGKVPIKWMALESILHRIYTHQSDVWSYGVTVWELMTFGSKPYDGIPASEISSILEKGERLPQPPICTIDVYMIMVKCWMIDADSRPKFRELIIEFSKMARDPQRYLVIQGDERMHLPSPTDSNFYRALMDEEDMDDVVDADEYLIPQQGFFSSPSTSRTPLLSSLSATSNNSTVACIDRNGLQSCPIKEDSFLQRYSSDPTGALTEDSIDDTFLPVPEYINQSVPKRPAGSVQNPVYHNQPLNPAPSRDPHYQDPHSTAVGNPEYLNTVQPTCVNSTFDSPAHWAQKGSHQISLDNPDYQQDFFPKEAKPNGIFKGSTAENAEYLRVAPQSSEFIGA

Structure (SMILES)	IC50 (c-Src) [µM]	IC50 [1] [µM]	IC50 (Protein kinase C (PKC)) [µM]	IC50 (HCT-8 cells) [µM]	IC50 (HT-29 cells) [µM]
CCN(CC)CCCCNc1cc2c(cn1)cc(-c1c(Cl)cccc1Cl)c(=O)n2C [Example F, 3-(2,6-dichlorophenyl)-7-[4-(diethylamino)butylamino]-1-methyl-1H-[1,6]naphthyridin-2-one]	0.04	3.8	> 50	> 5	> 5
CN1CCN(CCCNc2cc3c(cn2)cc(-c2c(Cl)cccc2Cl)c(=O)n3C)CC1 [Example H, 3-(2,6-dichlorophenyl)-1-methyl-7-[3-(4-methylpiperazin-1-yl)propylamino]-1H-[1,6]naphthyridin-2-one]	0.06	3.2	< 50	> 5	> 5
CCN(CC)CCOc1ccc(Nc2cc3c(cn2)cc(-c2c(Cl)cccc2Cl)c(=O)n3C)cc1 [Example P, 3-(2,6-dichlorophenyl)-7-[(4-(2-(diethylamino)ethoxy)phenyl)amino]-1-methyl-1H-[1,6]naphthyridin-2-one]	0.08	0.59	> 50	> 5	> 5
CN1CCN(CCOc2ccc(Nc3cc4c(cn3)cc(-c3c(Cl)cccc3Cl)c(=O)n4C)cc2)CC1 [Example S, 3-(2,6-dichlorophenyl)-1-methyl-7-[(4-(2-(4-methylpiperazin-1-yl)ethoxy)phenyl)amino]-1H-[1,6]naphthyridin-2-one]	0.02	–	–	–	–
